Where two headings read alike, the source gives them in different places.
Legend:
[1] = test system: Immortalised Mouse Dermal Fibroblasts (MDFs); assay: Cellular assay: inhibition of TSI induced necroptosis, CellTitre-Glo viability; details: Mus musculus, Fibroblast, MDF, 3 hours TSI cocktail, read-out: Inhibition of TSI-induced necroptosis (IC50 cell-based assay) in MDF
Method: Cellular Assay: Screening Compounds for Inhibition of TSI Induced Necroptosis in, 384 Well Plate Format.
• Cell Line ID: Immortalised Mouse Dermal Fibroblasts (MDFs). • Cell Concentration (cells/well): Final cell density is 2200 cells per well. • Cell growth medium: DMEM medium+7.4% Fetal Bovine Serum (FBS). Cells are cultured in Corning 150 cm^2 tissue culture flasks with vented caps at 37° C./10% CO2. • Incubation: Plates were incubated for 30 minutes following addition of compounds and then 3 hours incubation with death stimuli (TSI cocktail) at 37° C./10% CO2 in a humidified incubator. • Compound concentration: 36 μM starting concentration, 1:3 dilution, 10 point • DMSO final concentration (% v/v): 0.3%. Compounds in TSI Cocktail (T: TNF; S: Smac Mimetic; I: IDN-6556) and their Final Concentrations: • rhTNF (100 ng/ml) • Compound a (500 nM)—Smac Mimetic, Tetralogic and SYNthesis Med Chem • IDN-6556 (10 μM)—Selleckchem (S7775)
The cellular assay was carried out according to the following steps: • 1. Each well was prepared by sequential addition of: • a. 40 μL of cell suspension (5.5×10^4 cells/mL) was added to each well to provide a final cell concentration of 2,200 cells per well. • b. After 24 hours, DMSO (control; columns 1-2 and 23-24) or compound in DMSO—addition was performed using acoustic transfer of nL volumes of stock compound to give final test concentrations of 36, 12, 4, 1.3, 0.44, 0.148, 0.049, 0.016, 0.005 and 0.002 μM. All wells were backfilled with DMSO to a final total volume in the well of 100 nL. • c. Following compound/DMSO addition in step (b), Plates were incubated for 30 minutes at 37° C./10% CO2 in a humidified incubator and then 10 μL of 5×TSI cocktail (except to positive controls; columns 2 and 24) was added to each well. • 2. After 3 hours, plate was removed from the 37° C. incubator and equilibrated to room temperature for 15 minutes. • 3. 15 μL of room temperatured CellTitre-Glo2™ (Promega™) was added to each well. • 4. Shook plates for 2 minutes (˜600 rpm) and incubated at room temperature for 15 minutes to allow signal to stabilise. • 5. Read luminescence readout on a plate reader.
Percent viability was calculated for each compound according to equation (2):
[formula] • Wherein RawData is the readout of any cell containing a compound of the invention.
TA is the total activity provided by the luminescence readout from DMSO only wells (columns 2 and 24)=100% viability.
NSA is the non-specific activity provided by DMSO+TSI wells (columns 1 and 23)=0% viability • Curve fitting: 10-point titration curves are fitted with the 4-parameter logistic nonlinear regression model and the IC50 reported is the inflection point of the curve • Analysis: Data was loaded into Dotmatics™ and visualised using the Tibco@ • Spotfire™ software. 10 point titration curves were fitted with the 4 parameter logistic nonlinear regression model and the IC50 reported reflect the inflection point of the curve for curve fitting.
Assay involving the TSI cocktail (T: TNF; S: Smac mimetic; I: IDN-6556): TSI treatment ensures that cells specifically undergo necroptotic cell death. TNF activates the TNF receptor, Smac mimetic directs the signal away from proinflammatory signaling and toward the RIPK1/RIPK3-mediated cell death pathways, and IDN-6556 (Caspase inhibitor) ensures that the apoptotic response is blocked leaving only the programmed necrosis response. The compounds' activity (solution in DMSO) tested in this TSI-induced assay was evaluated by determining the number of viable cells in culture by measuring the amount of ATP present as measured by CelltiterGlo.

human MLKL (full length) = human MLKL (full length) (Homo sapiens (Human), UniProt Q8NB16); assay: KINOMEscan binding assay, human MLKL (full length); details: hMLKL, Table 25; read-out: MLKL (KD)
Sequence of human MLKL (full length) (Q8NB16 whole entry): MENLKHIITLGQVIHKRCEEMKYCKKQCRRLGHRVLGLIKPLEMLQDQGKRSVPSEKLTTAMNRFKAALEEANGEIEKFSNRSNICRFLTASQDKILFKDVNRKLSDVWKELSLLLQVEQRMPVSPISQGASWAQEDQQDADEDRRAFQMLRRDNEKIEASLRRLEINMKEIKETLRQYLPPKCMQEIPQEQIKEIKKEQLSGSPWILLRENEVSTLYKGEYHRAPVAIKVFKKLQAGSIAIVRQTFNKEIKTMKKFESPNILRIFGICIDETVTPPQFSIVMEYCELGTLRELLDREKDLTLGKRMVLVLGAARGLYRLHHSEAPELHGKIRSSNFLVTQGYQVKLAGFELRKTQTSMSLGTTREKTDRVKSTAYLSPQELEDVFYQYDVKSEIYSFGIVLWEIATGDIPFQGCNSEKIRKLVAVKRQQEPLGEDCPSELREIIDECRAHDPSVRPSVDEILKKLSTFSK
Summary of the method: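 Binding constants were derived by fitting qPCR-quantified bead-retained kinase against compound concentration to the Hill equation, slope set at −1. Compound series were 3-fold over 11 points with 1% DMSO; most top concentrations were 30,000 nM. Kinases were T7-phage-tagged or HEK-293-produced with DNA tags.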

Row | Compound | Kd (human MLKL (full length)) [nM] | IC50 ([1]; Table 27) [nM] | IC50 ([1]; Table 24) [nM]
1 | Cc1ncsc1-c1ccc(CNC(=O)[C@@H]2C[C@@H](O)CN2C(=O)[C@@H](NC(=O)CCCCOC(=O)c2ccc(-c3cnc(N)c4c(-c5ccc(NS(=O)(=O)C(F)F)c(O[C@@H](C)c6ccc(F)cc6)c5)nn(C)c34)cc2)C(C)(C)C)cc1 [Compound 1064, 4-{[(2S)-1-[(2S,4R)-4-hydroxy-2-({[4-(4-methyl-1,3-thiazol-5-yl)phenyl]methyl}carbamoyl)pyrrolidin-1-yl]-3,3-dimethyl-1-oxobutan-2-yl]carbamoyl}butyl 4-{4-amino-3-[4-(difluoromethanesulfonamido)-3-[(1 S)-1-(4-fluorophenyl)ethoxy]phenyl]-1-methyl-1H-pyrazolo[4,3-c]pyridin-7-yl}benzoate] | 10 to 1000 | 1000 to 10000 | –
2 | C[C@H](Oc1cc(-c2nn(C)c3c(-c4cnn(C5CCNC(C(F)(F)F)C5)c4)cnc(N)c23)ccc1NS(=O)(=O)C(F)F)c1ccc(F)cc1 (stereo partly drawn) [Compound 149, N-(4-(4-amino-1-methyl-7-(1-(2-(trifluorometh-yl)piperidin-4-yl)-1H-pyrazol-4-yl)-1H-pyrazolo[4,3-c]pyridin-3-yl)-2-((S)-1-(4-fluoro-phenyl)ethoxy)phenyl)-1,1-difluoro-methanesulfonamide] | – | – | < 1000
3 | C[C@H](Oc1cc(-c2nn(C)c3c(-c4cnn(CCCCCCC(=O)Nc5cccc6c5CN(C5CCC(=O)NC5=O)C6=O)c4)cnc(N)c23)ccc1NS(=O)(=O)C(F)F)c1ccc(F)cc1 (stereo partly drawn) [Compound 1062, 7-(4-{4-amino-3-[4-(difluoromethanesulfonamido)-3-[(1S)-1-(4-fluorophenyl)ethoxy]phenyl]-1-methyl-1H-pyrazolo[4,3-c]pyridin-7-yl}-1H-pyrazol-1-yl)-N-[2-(2,6-dioxopiperidin-3-yl)-1-oxo-2,3-dihydro-1H-isoindol-4-yl]heptanamide] | < 10 | 1000 to 10000 | –
4 | Cc1ncsc1-c1ccc(CNC(=O)[C@@H]2C[C@@H](O)CN2C(=O)[C@@H](NC(=O)C2(F)CC2)C(C)(C)C)c(OCCOCCOCCOCCn2cc(-c3cnc(N)c4c(-c5ccc(NS(=O)(=O)C(F)F)c(O[C@@H](C)c6ccc(F)cc6)c5)nn(C)c34)cn2)c1 [Compound 1061, (2S,4R)-N-({2-[2-(2-{2-[2-(4-{4-amino-3-[4-(difluoromethanesulfonamido)-3-[(1S)-1-(4-fluorophenyl)ethoxy]phenyl]-1-methyl-1H-pyrazolo[4,3-c]pyridin-7-yl}-1H-pyrazol-1-yl)ethoxy]ethoxy}ethoxy)ethoxy]-4-(4-methyl-1,3-thiazol-5-yl)phenyl}methyl)-1-[(2S)-2-[(1-fluorocyclopropyl)formamido]-3,3-dimethylbutanoyl]-4-hydroxypyrrolidine-2-carboxamide] | < 10 | 1000 to 10000 | –
5 | Cc1ncsc1-c1ccc(CNC(=O)[C@@H]2C[C@@H](O)CN2C(=O)[C@@H](NC(=O)CCCCCCCn2cc(-c3cnc(N)c4c(-c5ccc(NS(=O)(=O)C(F)F)c(O[C@@H](C)c6ccc(F)cc6)c5)nn(C)c34)cn2)C(C)(C)C)cc1 [Compound 1067, (2S,4R)-1-[(2S)-2-[8-(4-{4-amino-3-[4-(difluoromethanesulfonamido)-3-[(1S)-1-(4-fluorophenyl)ethoxy]phenyl]-1-methyl-1H-pyrazolo[4,3-c]pyridin-7-yl}-1H-pyrazol-1-yl)octanamido]-3,3-dimethylbutanoyl]-4-hydroxy-N-{[4-(4-methyl-1,3-thiazol-5-yl)phenyl]methyl}pyrrolidine-2-carboxamide] | < 10 | < 1000 | –
6 | [2H]C([2H])([2H])N1CCC(n2cc(-c3cnc(N)c4c(-c5ccc(NS(=O)(=O)C(F)F)c(O[C@@H](C)c6ccc(F)cc6)c5)nn(C)c34)cn2)CC1(C)C (stereo partly drawn) [Compound 152, N-(4-(4-amino-7-(1-(2,2-dimethyl-1-(methyl-d3)piperidin-4-yl)-1H-pyrazol-4-yl)-1-methyl-1H-pyrazolo[4,3-c]pyridin-3-yl)-2-((S)-1-(4-fluorophenyl)ethoxy)phenyl)-1,1-difluoromethanesulfonamide] | – | – | < 1000
7 | Cc1ncsc1-c1ccc(CNC(=O)[C@@H]2C[C@@H](O)CN2C(=O)[C@@H](NC(=O)CCCCC#Cc2cnc(N)c3c(-c4ccc(NS(=O)(=O)C(F)F)c(O[C@@H](C)c5ccc(F)cc5)c4)nn(C)c23)C(C)(C)C)cc1 [Compound 1026, (2S,4R)-1-[(2S)-2-(7-{4-amino-3-[4-(difluoromethanesulfonamido)-3-[(1S)-1-(4-fluorophenyl)ethoxy]phenyl]-1-methyl-1H-pyrazolo[4,3-c]pyridin-7-yl}hept-6-ynamido)-3,3-dimethylbutanoyl]-4-hydroxy-N-{[4-(4-methyl-1,3-thiazol-5-yl)phenyl]methyl}pyrrolidine-2-carboxamide] | 10 to 1000 | 1000 to 10000 | –
8 | C[C@H](Oc1cc(-c2nn(C)c3c(-c4cnn(C5CCN(C(=O)c6ccc(C(=O)NC7CCC(=O)NC7=O)cc6)CC5)c4)cnc(N)c23)ccc1NS(=O)(=O)C(F)F)c1ccc(F)cc1 (stereo partly drawn) [Compound 1086, 4-[4-(4-{4-amino-3-[4-(difluoromethanesulfonamido)-3-[(1S)-1-(4-fluorophenyl)ethoxy]phenyl]-1-methyl-1H-pyrazolo[4,3-c]pyridin-7-yl}-1H-pyrazol-1-yl)piperidine-1-carbonyl]-N-(2,6-dioxopiperidin-3-yl)benzamide] | < 10 | 1000 to 10000 | –

The next lines start with results.

Row | Kd (human MLKL (full length)) [nM] | Compound | IC50 ([1]; Table 27) [nM] | IC50 ([1]; Table 24) [nM]
9 | < 10 | C[C@H](Oc1cc(-c2nn(C)c3c(-c4cnn(C5CCN(C(=O)c6ccc7c(N8CCC(=O)NC8=O)coc7c6)CC5)c4)cnc(N)c23)ccc1NS(=O)(=O)C(F)F)c1ccc(F)cc1 [Compound 1117, N-{4-[4-amino-7-(1-{1-[3-(2,4-dioxo-1,3-diazinan-1-yl)-1-benzofuran-6-carbonyl]piperidin-4-yl}-1H-pyrazol-4-yl)-1-methyl-1H-pyrazolo[4,3-c]pyridin-3-yl]-2-[(1S)-1-(4-fluorophenyl)ethoxy]phenyl}-1,1-difluoromethanesulfonamide] | 1000 to 10000 | –
10 | < 10 | C[C@H](Oc1cc(-c2nn(C)c3c(-c4cnn(C5CCN(C(=O)CC6CN(c7cccc8c7C(=O)N(C7CCC(=O)NC7=O)C8=O)C6)CC5)c4)cnc(N)c23)ccc1NS(=O)(=O)C(F)F)c1ccc(F)cc1 (stereo partly drawn) [Compound 1112, N-[4-(4-amino-7-{1-[1-(2-{1-[2-(2,6-dioxopiperidin-3-yl)-1,3-dioxo-2,3-dihydro-1H-isoindol-4-yl]azetidin-3-yl}acetyl)piperidin-4-yl]-1H-pyrazol-4-yl}-1-methyl-1H-pyrazolo[4,3-c]pyridin-3-yl)-2-[(1S)-1-(4-fluorophenyl)ethoxy]phenyl]-1,1-difluoromethanesulfonamide] | 1000 to 10000 | –
11 | < 10 | C[C@H](Oc1cc(-c2nn(C)c3c(-c4cnn(C5CCN(CCc6cccc7c6C(=O)N(C6CCC(=O)NC6=O)C7=O)CC5)c4)cnc(N)c23)ccc1NS(=O)(=O)C(F)F)c1ccc(F)cc1 (stereo partly drawn) [Compound 1136, N-(4-{4-amino-7-[1-(1-{2-[2-(2,6-dioxopiperidin-3-yl)-1,3-dioxo-2,3-dihydro-1H-isoindol-4-yl]ethyl}piperidin-4-yl)-1H-pyrazol-4-yl]-1-methyl-1H-pyrazolo[4,3-c]pyridin-3-yl}-2-[(1S)-1-(4-fluorophenyl)ethoxy]phenyl)-1,1-difluoromethanesulfonamide] | 1000 to 10000 | –
